From US20240225971A1 (Genomatica, Inc., priority 2021, published 2024)
Converted amounts (≈) assume the structure as drawn. Where two headings read alike, the source gives them in different places. Each block holds one compound with its values, some of them ahead of it.

Tests used:
microorganisms = assay: Minimum Inhibitory Concentration (MIC) testing; format: cell-based
[1] = Repeated Insult Patch Test; format: in vivo, human
Protocol: Prior to the initiation of the study, each jar containing the test material received a N2 blanket conducted by the Analytical Department at Consumer Product Testing Company.
The upper back between the scapulae served as the treatment area. Approximately 0.2 ml of the test material, or an amount sufficient to cover the contact surface, was applied to the 1″×1″ absorbent pad portion of a clear adhesive dressing. This was then applied to the appropriate treatment site to form a semi-occlusive patch.
Erythema was scored numerically according to the key in TABLE 16. If present, additional Dermal Sequelae were indicated by the appropriate letter code and a numerical value for severity was assigned.
Patches were applied three (3) times per week (e.g., Monday, Wednesday, and Friday) for a total of nine (9) applications. The site was marked to ensure the continuity of patch application. Following supervised removal and scoring of the first Induction patch, participants were instructed to remove all subsequent Induction patches at home, twenty-four hours after application. The evaluation of this site was made again just prior to re-application. If a participant was unable to report for an assigned test day, one (1) makeup day was permitted. This day was added to the Induction period.
Applications were discontinued for the remainder of this test phase, if a moderate (2-level) reaction was observed on this new test site. Applications would also be discontinued if marked (3-level) or severe (4-level) reactivity was noted.
Rest periods consisted of one day following each Tuesday and Thursday removal, and two days following each Saturday removal.
Approximately two (2) weeks after the final Induction patch application, a Challenge patch was applied to a virgin test site adjacent to the original Induction patch site, following the same procedure described for the Induction Phase. The Challenge patch was removed and the site scored at the clinic on Day 1 and Day 3 post-application.

[2] = Technical quality analysis (viscosity, precipitation, color, visual clarity, skin testing)
Protocol: Color changes were noted if there were any color variation resulting from the addition of fragrance ingredient in diluent. For select fragrance ingredients, skin testing was performed. Specifically, in the first round of testing, skin odor evaluation was performed on an interim basis for selective ingredients.

[3] = Vapor pressure of fragrance ingredients
Source text: (§1) Also included is the molecular weight of each of the fragrance ingredients. Not determinable (ND).

[4] = Flash point of fragrance ingredients; format: physicochemical
Source text: as §1

[5] = Clarity of fragrance ingredient in bioderived 1,3-BG by visual observation
Protocol: (§2) Clarity for each of the fragrance ingredients (10% in bioderived 1,3-BG) was determined by visual observations after compounding and blending the fragrance ingredient with bioderived 1,3-BG and identified as clear, slightly haze, cloudy, particles, or separation.
(§3) Clarity for each of the fragrance ingredients (at 1% in bioderived 1,3-BG) was determined by visual observations after compounding and blending the fragrance ingredient with bioderived 1,3-BG and identified as clear, slightly haze, cloudy, particles, or separation.

[6] = Solubility of fragrance ingredients in bioderived 1,3-BG (visual inspection); conditions: 10% ingredient in bioderived 1,3-BG; excellent, good, moderate, poor, or none
Protocol: as §2, §3

[7] = Water solubility at 25° C. of fragrance ingredients
Source text: as §1

[8] = log P of fragrance ingredients
Source text: The term “fragrance composition” or “composition,” as used herein, represents a composition containing one or more fragrance ingredients described here and formulated with a physiologically acceptable diluent or solvent, used interchangeably here. In a fragrance composition, or composition that has a fragrance, such as a perfume, 20%-40% of the observable liquid may be comprised of a diluent, i.e., the delivery system for scents of the fragrance ingredients. The “log P” value, as used here, indicates whether a substance or fragrance ingredient will be absorbed by humans, animals, plants, or living tissue; diffused or disseminated by water.
as §1

[9] = 10% ingredient in bioderived 1,3-BG, clear, slightly haze, cloudy, particles, or separation

Compound: CC(O)CCO (stereo not shown) [bioBG, 1,3-butylene glycol]
MIC (microorganisms; Escherichia coli, E. coli, concentration completely inhibiting microbial growth): 100 mg/mL (≈ 1110 mM)
inhibition of microbial growth in MIC tests (microorganisms; compared to 1,3-PG and glycerin): increased ability to inhibit microbial growth compared to 1,3-Propylene Glycol (1,3-PG) and glycerin
adverse events ([1]; 40% dilution in water): no adverse events
Virgin Challenge Site Day 1* skin reaction score ([1]; bioBG diluted to 40%, human subjects, Challenge patch, Day 1 post-application, supervised removal, one line per subject): 0
Virgin Challenge Site Day 3 skin reaction score ([1]; bioBG diluted to 40%, human subjects, Challenge patch, Day 3 post-application, one line per subject): 0
Induction Phase 2 skin reaction score ([1]; bioBG diluted to 40%, human subjects, Induction reading 2, one line per subject): 0
Induction Phase 3 skin reaction score ([1]; bioBG diluted to 40%, human subjects, Induction reading 3, one line per subject): 0
Induction Phase 4 skin reaction score ([1]; bioBG diluted to 40%, human subjects, Induction reading 4, one line per subject): 0
Induction Phase 5 skin reaction score ([1]; bioBG diluted to 40%, human subjects, Induction reading 5, one line per subject): 0
Induction Phase 6 skin reaction score ([1]; bioBG diluted to 40%, human subjects, Induction reading 6, one line per subject): 0
Induction Phase 7 skin reaction score ([1]; bioBG diluted to 40%, human subjects, Induction reading 7, one line per subject): 0
Induction Phase 8 skin reaction score ([1]; bioBG diluted to 40%, human subjects, Induction reading 8, one line per subject): 0
Induction Phase 9 skin reaction score ([1]; bioBG diluted to 40%, human subjects, Induction reading 9, one line per subject): 0
Induction Phase Day 1* skin reaction score ([1]; bioBG diluted to 40%, human subjects, first Induction patch, supervised removal, one line per subject): 0
skin properties when applied to skin ([1]; up to a concentration of 40%): non-irritating, non-sensitizing, and/or non-allergenic
visual clarity compared to DPG, BB, IPM [2]: exceptional visual clarity with a crystal clear appearance
viscosity ([2]; observed with the different fragrance ingredients): very consistent

Vapor Pressure [3]: 0.001 mm hg
Flash Point [4]: 148 °C
Clarity 10% [5, 9]: Clear
Solubility 10% [6]: Good
Water Solubility ([7]; 25° C.): 91.720 mg/L
logP [8]: 2.653
Compound: CCCCCC1C(=O)CCC1CC(=O)OC (stereo not shown) [Hedione]

Compound: CCCc1ccc(O)c(OC)c1 [Dihydro Eugenol]
Vapor Pressure [3]: 0.006 mm hg
Flash Point [4]: 100 °C
Clarity 10% [5, 9]: Clear
Solubility 10% [6]: Good
Water Solubility ([7]; 25° C.): 228.000 mg/L
logP [8]: 2.39

Compound: CC1(O)CCC2C(=CCCC2(C)C)C1 (stereo not shown) [Ambrinol]
Vapor Pressure [3]: 0.0005 mm hg
Flash Point [4]: 100 °C
Clarity 10% [5, 9]: Clear
Water Solubility [7]: 134.300 mg/L
logP [8]: 3.785

Compound: Caryophyllene
Vapor Pressure [3]: 0.013 mm hg
Flash Point [4]: 16 °C
Clarity 1% [5]: Slightly Haze
Clarity 10% [5]: Cloudy
Water Solubility ([7]; 25° C.): 0.050 mg/L
logP [8]: 6.3

Vapor Pressure [3]: 0.000246 mm hg
Flash Point [4]: 110 °C
Clarity 10% [5, 9]: Cloudy
solubility ([7]; water, 25 °C): 9.52 µg/mL (≈ 0.0432 mM)
logP [8]: 4.4
Compound: CC/C=C\CCOC(=O)c1ccccc1O [Cis-3-Hexenyl Salicylate]

Compound: C=CC(C)CCCC(C)(C)O (stereo not shown) [Dihydro Myrcenol]
Vapor Pressure [3]: 0.166 mm hg
Flash Point [4]: 76 °C
Clarity 10% [5, 9]: Clear
Water Solubility ([7]; 25° C.): 252.200 mg/L
logP [8]: 2.99

Compound: OCCCO [1,3-PG, 1,3-Propylene Glycol]
MIC A. brasiliensis (microorganisms; A. brasiliensis, concentration completely inhibiting microbial growth): >350 mg/mL
MIC C. albicans (microorganisms; C. albicans, concentration completely inhibiting microbial growth): 250 mg/mL (≈ 3290 mM)
MIC E. coli (microorganisms; E. coli, concentration completely inhibiting microbial growth): 225 mg/mL (≈ 2960 mM)
MIC P. aeruginosa (microorganisms; P. aeruginosa, concentration completely inhibiting microbial growth): 200 mg/mL (≈ 2630 mM)
MIC S. aureus (microorganisms; S. aureus, concentration completely inhibiting microbial growth): 300 mg/mL (≈ 3940 mM)
